Patent US9206156B2, “Substituted indole derivatives” (GRÜNENTHAL GMBH, priority 2008, dated 2015)

Assays:
[1] = target: T1, ORL1 receptor (Homo sapiens, UniProt P41146); assay: ORL1 receptor binding assay with 3H-nociceptin/orphanin FQ (WGA-SPA beads); conditions: c=1 μM test substance; 0.5 nM 3H-nociceptin/orphanin FQ; membranes of recombinant CHO-ORL1 cells
T1 construct: expressed in transfected cells; host or cells: CHO (recombinant CHO-ORL1 cells), membranes
Outline: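 Affinity given as nanomolar Ki or as % inhibition at c=1 μM. Membranes of CHO cells expressing recombinant ORL1 (20 μg protein) were incubated one hour at room temperature with 0.5 nM 3H-nociceptin/orphanin FQ in Hepes 50 mM, pH 7.4, plus MgCl2 and EDTA; bound ligand detected by SPA bead scintillation counting.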

[2] = target: T2, human μ-opiate receptor (Homo sapiens, UniProt P35372); assay: μ-opiate receptor binding assay with [3H] naloxone (WGA-SPA beads); conditions: 1 μmol/l test substance, 1 nmol/l [3H] naloxone, CHO-K1 cell membranes expressing human μ-opiate receptor
T2 construct: purchased NEN, Zaventem, Belgium RB-HOM; host or cells: CHO-K1 cells (membrane preparation)
T2 sequence (P35372 whole entry): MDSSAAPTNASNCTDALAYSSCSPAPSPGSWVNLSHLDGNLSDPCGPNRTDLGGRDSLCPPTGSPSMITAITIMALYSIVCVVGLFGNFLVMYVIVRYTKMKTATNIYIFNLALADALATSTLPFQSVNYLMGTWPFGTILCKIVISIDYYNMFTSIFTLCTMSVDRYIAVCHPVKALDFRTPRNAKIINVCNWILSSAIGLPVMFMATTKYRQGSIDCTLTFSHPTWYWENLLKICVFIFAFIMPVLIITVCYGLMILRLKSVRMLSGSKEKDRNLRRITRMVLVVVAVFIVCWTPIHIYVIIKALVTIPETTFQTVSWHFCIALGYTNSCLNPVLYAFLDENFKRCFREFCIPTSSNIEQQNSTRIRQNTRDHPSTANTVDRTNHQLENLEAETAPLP
Outline: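 Scintillation proximity readout: [3H]naloxone (1 nmol/l) displacement measured after 90 min, room temperature, on human μ-receptor CHO-K1 membranes in Tris-HCl/azide/BSA buffer; 25 μmol/l naloxone defined non-specific binding. Values are % specific-binding inhibition at 1 μmol/l, or Ki from IC50 (Cheng-Prusoff).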

T1 sequence (P41146 whole entry): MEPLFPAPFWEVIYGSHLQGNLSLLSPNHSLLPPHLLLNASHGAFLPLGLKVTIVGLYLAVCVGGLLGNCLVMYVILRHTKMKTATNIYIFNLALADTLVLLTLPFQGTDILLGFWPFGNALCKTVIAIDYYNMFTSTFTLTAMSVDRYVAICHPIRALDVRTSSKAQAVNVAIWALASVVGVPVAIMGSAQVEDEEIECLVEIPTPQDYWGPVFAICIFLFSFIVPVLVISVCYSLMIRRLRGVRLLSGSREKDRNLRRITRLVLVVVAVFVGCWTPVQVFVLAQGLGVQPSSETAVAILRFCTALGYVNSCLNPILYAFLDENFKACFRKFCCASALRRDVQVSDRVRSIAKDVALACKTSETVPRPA

| Compound | inhibition at 1 µM [1] [%] | inhibition at 1 µM [2] [%] | % Inhibition (ORL1) at 1 μM [1] [%] | % Inhibition (μ) at 1 μM [2] [%] | % Inhibition (μ) at 1 μM ([2]; 1 µM) [%] |
| --- | --- | --- | --- | --- | --- |
| CN(CCCN1CCC(c2cccs2)(N(C)C)CC1)C(=O)c1cc2cc(F)ccc2[nH]1 [Example 15, N-(3-(4-(Dimethylamino)-4-(thiophen-2-yl)piperidin-1-yl)propyl)-5-fluoro-N-methyl-1H-indole-2-carboxamide] | 58 | 88 | – | – | – |
| COc1ccc2[nH]c(C(=O)NCCC(=O)N3CCC(c4ccccc4)(N(C)C)CC3)cc2c1 [Example 129, N-(3-(4-(dimethylamino)-4-phenylpiperidin-1-yl)-3-oxopropyl)-5-methoxy-1H-indole-2-carboxamide] | 37 | 73 | – | – | – |
| CC(C)C(CC(=O)NCCN1CCC(c2cccs2)(N(C)C)CC1)c1c[nH]c2ccccc12 (stereo not shown) [Example 2, N-(2-(4-(Dimethylamino)-4-(thiophen-2-yl)piperidin-1-yl)ethyl)-3-(1H-indol-3-yl)-4-methylpentanamide] | 96 | 99 | – | – | – |
| CCCCC1(N(C)C)CCN(CCN(C)Cc2c[nH]c3ccc(Br)cc23)CC1 [Example 154, 1-(2-(((5-bromo-1H-indol-3-yl)methyl)(methyl)amino)ethyl)-4-butyl-N,N-dimethylpiperidin-4-amine] | 28 | 94 | – | – | – |
| CN(C)C1(c2ccccc2)CCN(C(=O)C2CN(Cc3ccc4[nH]ccc4c3)c3ccccc32)CC1 (stereo not shown) [Example 166, (1-((1H-indol-5-yl)methyl)indolin-3-yl)(4-(dimethylamino)-4-phenylpiperidin-1-yl)methanone] | 40 | 77 | – | – | – |
| CN(C)C1(c2cccs2)CCN(CCNC(=O)C2CCCc3c2[nH]c2ccc(Cl)cc32)CC1 (stereo not shown) [Example 7, 6-Chloro-N-(2-(4-(dimethylamino)-4-(thiophen-2-yl)piperidin-1-yl)ethyl)-2,3,4,9-tetrahydro-1H-carbazole-1-carboxamide] | 62 | 95 | – | – | – |
| CN(C)C1(c2cccs2)CCN(C(=O)CC(NCc2cccc3cc[nH]c23)c2ccccc2)CC1 (stereo not shown) [Example 173, 3-((1H-indol-7-yl)methylamino)-1-(4-(dimethylamino)-4-(thiophen-2-yl)piperidin-1-yl)-3-phenylpropan-1-one] | 74 | 96 | – | – | – |
| CN(C)C1(c2cccs2)CCN(CCNC(=O)c2ccc3ccn(C)c3c2)CC1 [Example 9, N-(2-(4-(Dimethylamino)-4-(thiophen-2-yl)piperidin-1-yl)ethyl)-1-methyl-1H-indole-6-carboxamide] | 77 | 101 | – | – | – |
| CN(C)c1ccc2cc(C(=O)N3CCCC(C(=O)N4CCC(c5ccccc5)(N(C)C)CC4)C3)[nH]c2c1 (stereo not shown) [Example 136, (6-(dimethylamino)-1H-indol-2-yl)(3-(4-(dimethylamino)-4-phenylpiperidine-1-carbonyl)piperidin-1-yl)methanone] | 24 | 46 | – | – | – |
| CN(C)C1(c2cccs2)CCN(CCNC(=O)Cc2c[nH]c3cc(F)ccc23)CC1 [Example 8, N-(2-(4-(Dimethylamino)-4-(thiophen-2-yl)piperidin-1-yl)ethyl)-2-(6-fluoro-1H-indol-3-yl)acetamide] | 96 | 99 | – | – | – |
| CN(C)C1(c2ccccc2)CCN(C(=O)C2CCCN(C(=O)c3c[nH]c4ccccc34)C2)CC1 (stereo not shown) [Example 131, (1-(1H-indole-3-carbonyl)piperidin-3-yl)(4-(dimethylamino)-4-phenylpiperidin-1-yl)methanone] | 34 | 43 | – | – | – |
| CN(C(=O)CCc1cn(C)c2ccccc12)C(C(=O)N1CCC(c2cccs2)(N(C)C)CC1)c1ccccc1 (stereo not shown) [Example 126, N-(2-(4-(dimethylamino)-4-(thiophen-2-yl)piperidin-1-yl)-2-oxo-1-phenylethyl)-N-methyl-3-(1-methyl-1H-indol-3-yl)propanamide] | 40 | 90 | – | – | – |
| CN(CCN1CCC(c2ccccc2)(N(C)C)CC1)C(=O)CCc1cn(C)c2ccccc12 [Example 14, N-(2-(4-(Dimethylamino)-4-phenylpiperidin-1-yl)ethyl)-N-methyl-3-(1-methyl-1H-indol-3-yl)propanamide] | 48 | 73 | – | – | – |
| CN(C)C1(c2ccccc2)CCN(C(=O)C2CCCN(C(=O)CCc3cn(C)c4ccccc34)C2)CC1 (stereo not shown) [Example 133, 1-(3-(4-(dimethylamino)-4-phenylpiperidine-1-carbonyl)piperidin-1-yl)-3-(1-methyl-1H-indol-3-yl)propan-1-one] | 32 | 71 | – | – | – |
| CN(CCCN1CCC(c2ccccc2)(N(C)C)CC1)C(=O)CCc1c[nH]c2ccccc12 [Example 61, N-(3-(4-(Dimethylamino)-4-phenylpiperidin-1-yl)propyl)-3-(1H-indol-3-yl)-N-methylpropanamide] | 65 | 89 | – | – | – |
| CN(CCCN1CCC(c2ccccc2)(N(C)C)CC1)C(=O)c1ccc2ccn(C)c2c1 [Example 39, N-(3-(4-(Dimethylamino)-4-phenylpiperidin-1-yl)propyl)-N,1-dimethyl-1H-indole-6-carboxamide] | 32 | 76 | – | – | – |
| Cc1[nH]c2ccccc2c1CNCCC(=O)N1CCC(c2ccccc2)(N(C)C)CC1 [Example 167, 1-(4-(dimethylamino)-4-phenylpiperidin-1-yl)-3-((2-methyl-1H-indol-3-yl)methylamino)propan-1-one] | 65 | 86 | – | – | – |
| CN(CCCN1CCC(c2ccccc2)(N(C)C)CC1)C(=O)Cc1c[nH]c2cc(F)ccc12 [Example 45, N-(3-(4-(Dimethylamino)-4-phenylpiperidin-1-yl)propyl)-2-(6-fluoro-1H-indol-3-yl)-N-methylacetamide] | 49 | 82 | – | – | – |
| CN(C)C1(c2ccccc2)CCN(C(=O)CCNC(=O)c2cccc3c2ccn3C)CC1 [Example 121, N-(3-(4-(dimethylamino)-4-phenylpiperidin-1-yl)-3-oxopropyl)-1-methyl-1H-indole-4-carboxamide] | 44 | 88 | – | – | – |
| CN(CCCN1CCC(c2ccccc2)(N(C)C)CC1)C(=O)c1ccc2cc[nH]c2c1 [Example 56, N-(3-(4-(Dimethylamino)-4-phenylpiperidin-1-yl)propyl)-N-methyl-1H-indole-6-carboxamide] | 35 | 71 | – | – | – |
| CC(C)C(CC(=O)NCCC(=O)N1CCC(c2ccccc2)(N(C)C)CC1)c1c[nH]c2ccccc12 (stereo not shown) [Example 84, N-(3-(4-(dimethylamino)-4-phenylpiperidin-1-yl)-3-oxopropyl)-3-(1H-indol-3-yl)-4-methylpentanamide] | 95 | 100 | – | – | – |
| CN(C)C1(c2ccccc2)CCN(C(=O)C2CN(C(=O)c3ccc4ccn(C)c4c3)c3ccccc32)CC1 (stereo not shown) [Example 118, (4-(dimethylamino)-4-phenylpiperidin-1-yl)(1-(1-methyl-1H-indole-6-carbonyl)indolin-3-yl)methanone] | 46 | 97 | – | – | – |
| CCCCC1(N(C)C)CCN(CCN(C)Cc2cccc3cc[nH]c23)CC1 [Example 157, 1-(2-(((1H-indol-7-yl)methyl)(methy)amino)ethyl)-4-butyl-N,N-dimethylpiperidin-4-amine] | – | – | 30 | 96 | – |
| CN(CCN1CCC(c2ccccc2)(N(C)C)CC1)C(=O)c1cc2cc(F)ccc2[nH]1 [Example 16, N-(2-(4-(Dimethylamino)-4-phenylpiperidin-1-yl)ethyl)-5-fluoro-N-methyl-1H-indole-2-carboxamide] | 89 | 94 | – | – | – |
| CC(C)c1ccc2c(CNCCN3CCC(c4cccs4)(N(C)C)CC3)c[nH]c2c1 [Example 74, 1-(2-((6-Isopropyl-1H-indol-3-yl)methylamino)ethyl)-N,N-dimethyl-4-(thiophen-2-yl)pipendin-4-amine] | 97 | 99 | – | – | – |
| CN(CCN1CCC(c2ccccc2)(N(C)C)CC1)C(=O)c1ccc2cc[nH]c2c1 [Example 1, N-(2-(4-(Dimethylamino)-4-phenylpiperidin-1-yl)ethyl)-N-methyl-1H-indol-6-amide] | – | – | 80 | – | 94 |
| CN(CCCN1CCC(c2ccccc2)(N(C)C)CC1)C(=O)Cc1c[nH]c2ccc(Br)cc12 [Example 63, 2-(5-Bromo-1H-indol-3-yl)-N-(3-(4-(dimethylamino)-4-phenylpiperidin-1-yl)propyl)-N-methylacetamide] | 41 | 81 | – | – | – |
| CN(CCN1CCC(c2ccccc2)(N(C)C)CC1)Cc1c[nH]c2ccc(Cl)cc12 [Example 183, 1-(2-(((5-chloro-1H-indol-3-yl)methyl)(methy)amino)ethyl)-N,N-dimethyl-4-phenylpiperidin-4-amine] | – | – | 95 | – | 100 |
| CN(C)C1(c2ccccc2)CCN(C(=O)C2CCCN(C(=O)c3cccc4c3ccn4C)C2)CC1 (stereo not shown) [Example 130, (4-(dimethylamino)-4-phenylpiperidin-1-yl)(1-(1-methyl-1H-indole-4-carbonyl)piperidin-3-yl) methanone] | 36 | 51 | – | – | – |
